Our source for the GI50 and TGI values is PubChem BioAssay (NCI).

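Growth conditions: 96-well plates. Treatment: test compound, 48 hours, 5 concentrations. Analysis: linear interpolation between bracketing concentrations; unreached endpoints set to highest concentration. Abbreviation: GI50, concentration required for 50% inhibition of growth. TGI marks complete inhibition of growth.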

Among the test systems are SF-295 CNS; SF-539 CNS; MOLT-4 leukemia; UO-31 renal; ACHN renal; M14 melanoma; CAKI-1 renal; 786-0 renal; OVCAR-3 ovarian; NCI/ADR-RES ovarian.
Common to all, as to experiment: growth of human tumour cells (NCI), 48 h

Take `O=C(Cc1ccc(/C=C/C(=O)c2ncc[nH]2)cc1)Nc1ccc(C(F)(F)F)cc1`: the GI50 is 4.08 µM in the test on SF-295 CNS; 4.52 µM with SF-539 CNS; 2.29 µM in the test on MOLT-4 leukemia; 2.43 µM with UO-31 renal; 6.33 µM with ACHN renal; 2.58 µM with M14 melanoma. The GI50 was 4.43 µM in the test on CAKI-1 renal, 1.4 µM in the test on 786-0 renal, 1.09 µM with OVCAR-3 ovarian and 8.96 µM with NCI/ADR-RES ovarian. Further, the TGI came to 9.3 µM with SF-295 CNS; 9.25 µM in the test with SF-539 CNS; 28.5 µM with MOLT-4 leukemia; 6.74 µM in the test on UO-31 renal; 17.8 µM in the test on ACHN renal; 9.25 µM with M14 melanoma. Besides, the TGI in the test with CAKI-1 renal is 9.47 µM; with 786-0 renal, 6.07 µM; in the test with OVCAR-3 ovarian it was 3.35 µM; with NCI/ADR-RES ovarian, greater than 33.3 µM.

With `COc1ccc(/C=C(/C(=O)n2cnnn2)c2cc(OC)c(OC)c(OC)c2)cc1`, the GI50 in the test with SF-295 CNS is 3.24 µM; in the test with SF-539 CNS, 3.2 µM; in the test on MOLT-4 leukemia, 4.31 µM; with UO-31 renal, 5.41 µM; in the test on ACHN renal it was 6.87 µM; with M14 melanoma it was 2.58 µM. The GI50 in the test with CAKI-1 renal was 4.15 µM; with 786-0 renal, 4.76 µM; with OVCAR-3 ovarian, 2.37 µM; with NCI/ADR-RES ovarian, 3.87 µM. Also, the TGI is greater than 100 µM in the test on SF-295 CNS; 19.9 µM with SF-539 CNS; greater than 100 µM in the test with MOLT-4 leukemia; greater than 100 µM in the test on UO-31 renal; greater than 100 µM in the test with ACHN renal; greater than 100 µM with M14 melanoma. Besides, the TGI in the test with CAKI-1 renal was greater than 100 µM; in the test with 786-0 renal it was greater than 100 µM; with OVCAR-3 ovarian, 5.94 µM; in the test on NCI/ADR-RES ovarian, greater than 100 µM.

Consider `CN(C)CCCC1(c2ccc(F)cc2)OCc2cc(-c3cncc4ccccc34)ccc21` (centres undefined), for which the GI50 in the test on SF-295 CNS was 2.02 µM; in the test with SF-539 CNS, 1.76 µM; in the test with MOLT-4 leukemia, 2.39 µM; in the test on UO-31 renal, 1.53 µM; in the test with ACHN renal, 3.34 µM; in the test with M14 melanoma, 1.82 µM. For the same compound, the GI50 with CAKI-1 renal is 2 µM; in the test on 786-0 renal it was 2.71 µM; in the test on OVCAR-3 ovarian it was 2.94 µM; in the test on NCI/ADR-RES ovarian, 4.89 µM. Moreover, the TGI with SF-295 CNS stood at 4.2 µM; in the test on SF-539 CNS, 3.29 µM; in the test on MOLT-4 leukemia, 6.7 µM; in the test with UO-31 renal, 4.41 µM; in the test with ACHN renal, 12.5 µM; in the test with M14 melanoma, 3.77 µM. Also, the TGI is 5.88 µM with CAKI-1 renal, 9.72 µM with 786-0 renal, 9.88 µM in the test with OVCAR-3 ovarian and 18.8 µM in the test with NCI/ADR-RES ovarian.

Consider `O=C(CCN1CCCC1)Nc1ccc2c(Nc3ccccc3)c3ccccc3nc2c1`, for which the GI50 in the test on SF-295 CNS is 0.498 µM; in the test with SF-539 CNS, 1.14 µM; with MOLT-4 leukemia, 0.0432 µM; in the test with UO-31 renal it was 0.808 µM; with ACHN renal it was 0.243 µM; in the test on M14 melanoma it was 1.13 µM. Besides, the GI50 was 0.397 µM in the test with CAKI-1 renal, 0.467 µM in the test with 786-0 renal, 1.06 µM in the test on OVCAR-3 ovarian and 1.84 µM in the test with NCI/ADR-RES ovarian. The TGI stood at 1.91 µM with SF-295 CNS; 2.44 µM with SF-539 CNS; 1.56 µM in the test on MOLT-4 leukemia; 2.38 µM in the test with UO-31 renal; 1.51 µM in the test with ACHN renal; 2.69 µM with M14 melanoma. The TGI in the test on CAKI-1 renal was 2.08 µM; in the test on 786-0 renal, 1.93 µM; in the test on OVCAR-3 ovarian it was 3.27 µM; with NCI/ADR-RES ovarian, 7.22 µM.

For `O=C(O)C1C(C(=O)O)C2(Cl)C(Cl)=C(Cl)C1(Cl)C2(Cl)Cl.[Cd]` (centres undefined), the GI50 in the test with SF-295 CNS was greater than 100 µM; in the test with SF-539 CNS, 3.66 µM; in the test on MOLT-4 leukemia it was 22 µM; with UO-31 renal it was 20.1 µM; in the test on ACHN renal, 21.3 µM; in the test with M14 melanoma, 19.2 µM. Also, the GI50 is 17.8 µM in the test on CAKI-1 renal, 8.59 µM in the test on 786-0 renal, 7.81 µM with OVCAR-3 ovarian and 28.6 µM in the test on NCI/ADR-RES ovarian. The TGI with SF-295 CNS was greater than 100 µM; with SF-539 CNS it was 11.7 µM; with MOLT-4 leukemia, 60.9 µM; with UO-31 renal it was 39.3 µM; in the test with ACHN renal, 43.9 µM; in the test with M14 melanoma, 38.9 µM. The TGI with CAKI-1 renal came out at 34.4 µM; in the test with 786-0 renal it was 22 µM; in the test on OVCAR-3 ovarian, 19.7 µM; in the test with NCI/ADR-RES ovarian, 80.3 µM.

Consider `COc1cc2nnn3c4ncccc4c(N=O)c3c2cc1OC`, for which the GI50 in the test with SF-295 CNS was 4.99 µM; in the test on SF-539 CNS it was 2.75 µM; in the test on UO-31 renal, 0.89 µM; with ACHN renal, 0.258 µM; in the test on M14 melanoma, 4.58 µM; in the test with CAKI-1 renal it was 0.131 µM. Further, the GI50 was 0.391 µM in the test on 786-0 renal, 0.722 µM in the test on OVCAR-3 ovarian and 0.91 µM with NCI/ADR-RES ovarian. Further, the TGI in the test with SF-295 CNS is 29.4 µM; in the test with SF-539 CNS, 9.15 µM; in the test on MOLT-4 leukemia it was greater than 100 µM; in the test on UO-31 renal, greater than 20.8 µM; in the test on ACHN renal, 2.15 µM; in the test with M14 melanoma it was 13 µM. Moreover, the TGI in the test with CAKI-1 renal is 1.27 µM; in the test with 786-0 renal, 2.48 µM; in the test with OVCAR-3 ovarian it was greater than 100 µM; with NCI/ADR-RES ovarian, greater than 33.6 µM.

With `Cn1cc(CO)c2ccccc21`, the GI50 was 34.2 µM with SF-295 CNS; 40.6 µM in the test on SF-539 CNS; 40 µM with MOLT-4 leukemia; 4.28 µM in the test on UO-31 renal; greater than 100 µM in the test with ACHN renal; 31.6 µM in the test with M14 melanoma. The GI50 in the test with CAKI-1 renal is 18.3 µM; with 786-0 renal, greater than 100 µM; in the test with OVCAR-3 ovarian, 29.5 µM; in the test on NCI/ADR-RES ovarian, 27.1 µM. The TGI with SF-295 CNS, with SF-539 CNS, with MOLT-4 leukemia, with UO-31 renal, with ACHN renal and in the test on M14 melanoma was greater than 100 µM each time. In addition, the TGI in the test with CAKI-1 renal, with 786-0 renal, in the test with OVCAR-3 ovarian and in the test on NCI/ADR-RES ovarian was greater than 100 µM throughout.
